The values below come from patent publication US4959372A, “Anti-hypertensive substituted 2-azabicyclooctane-3-carboxylic acids” (Adir et lie, priority 1987, dated 1990).

The test system of the experiment is converting enzyme (enzyme for conversion of angiotensin I to angiotensin II). Nature of the experiment: Inhibition of the converting enzyme (angiotensin I / angiotensin II pressor response) after oral administration to unanesthetized dogs. It counts as in vivo. Particulars: 1 mg/kg. As to the method:
The compound of the invention for which E=H was tested by oral administration on unanesthetized dogs. The arterial blood pressure of the dogs was measured with a pressure gauge ("Statham P23 Db") after catheterization of the aorta via the femoral artery. The recording is carried out with a recording apparatus ("Brush 400"). Angiotensin I and angiotensin II are injected into the animals intravenously at doses of 0.5 and 0.10 γ/kg, respectively. A dose/activity curve is established for each of these hormones. The compound according to the invention for which E=H is then administered orally at a dose of 1 mg/kg. A second dose/activity curve is then established for angiotensin I and for angiotensin II after administration of the test product.

Consider `Cl.NCCCC[C@H](N[C@@H](CCc1ccccc1)C(=O)O)C(=O)N1C2CCC(CC2)[C@H]1C(=O)O` [compound of the invention for which E=H, (3S)-2-{(S)-N-[(S)-1-carboxy-3-phenylpropyl]lysyl}-3-carboxy-2-azabicyclo[2.2.2]octane hydrochloride], for which the “percentage inhibition of the converting enzyme” value reads like this: (15 minutes after administration) 80%; (30 minutes after administration) ~100%; (6 hours after administration) “greater than 70%”.
